PMC8765781, “A platform of assays for the discovery of anti-Zika small-molecules with activity in a 3D-bioprinted outer-blood-retina model” (PLoS ONE, 2022)
Where two headings read alike, the source gives them in different places.

Assays:
[1] = system: caspase-3 activity induced by ZIKV in Vero cells; test: cells; format: cell-based; settings: Zika virus, read-out: Caspase 3 (ZIKV Antiviral Assays), IC50
[2] = system: ZIKV-RLuc (Cambodian strain FSS13025); test: microbe, parasite or virus in culture; format: cell-based, Zika virus; settings: Zika virus, Vero, 48 h, read-out: Rluc-ZIKV (ZIKV Antiviral Assays), IC50
[3] = system: mCherry-ZIKV in human neuronal progenitor cells; test: microbe, parasite or virus in culture; format: cell-based, Zika virus; settings: for AC50 / IC50: Zika virus, Neuronal progenitor cell; for IC50: read-out: NPC (ZIKV Antiviral Assays), IC50
in vitro [4] = settings: human
in vitro [5] = settings: human; remark: listed apart in the source
[6] = system: DENV (Dengue virus type 2, strain New Guinea C)
in vitro [7] = settings: African green monkey
[8] = system: ZIKV-mCherry (Cambodian strain FSS13025); test: microbe, parasite or virus in culture; format: cell-based, Zika virus; settings: for AC50: Zika virus, Vero
[9] = system: wild-type ZIKV (Ugandan MR766 strain) in Vero cells; test: ZIKV cytopathic effect (CPE) inhibition qHTS assay, CellTiter-Glo readout; format: cell-based, Zika virus; settings: for AC50 / IC50: Zika virus; for IC50: read-out: ZIKV-infection (CPE, ZIKV Antiviral Assays), IC50
[10] = system: ZIKV-mCherry in 3D-oBRB tissue; format: cell-based, Zika virus
[11] = read-out: Log AC50 (M) (converted)
[12] = Vero, read-out: Log AC50 (M) (converted)

| SMILES | IC50 ([1]; Vero, 48 h) [µM] | IC50 [2] [µM] | Efficacy [3] | Max Resp [3] | IC50 [3] [µM] | ZIKV active Yes/No (ZIKV) | CC50 (in vitro [4]) [µM] | CC50 at 24 h (in vitro [5]) [µM] | WHV active Yes/No (WNV (Kern515/WN02)) | DENV active Yes/No [6] | YFV active Yes/No (YFV (YFV 17D)) | CC-v2 (curve class of the dose response curve) [8] | Efficacy (difference between neutral response and maximum compound response) [8] | Max Resp (difference between neutral response and response at highest compound concentration) [8] | CC-v2 (curve class classification of the dose response curve) [9] | Efficacy [9] | AC50 ([9]; Vero) [M] | IC50 ([9]; Vero, 48 h) [µM] | AC50 [9, 12] [M] | CC-v2 (curve class) [3] | other results |
| --- | --- | --- | --- | --- | --- | --- | --- | --- | --- | --- | --- | --- | --- | --- | --- | --- | --- | --- | --- | --- | --- |
| CNC(=O)c1cc(Oc2ccc(NC(=O)Nc3cc(C(C)(C)C)nn3-c3ccc4ncccc4c3)c(F)c2)ccn1 [NCGC00263172-09] | 0.01 | 8.27 | -38.32 | -37.38 | 44.7 | No | > 30 | 12.1 | No | No | No | -1.2 | -48.4 | -100.305 | -1.2 | -30.756 | 2.91e-05 | 29.1 | 2.91e-05 | – | AC50 [3]: 4.47e-05 M; AC50 [3, 11]: 4.47e-05 M; CC50 at 48 h (in vitro [7]; Vero cells): > 50 µM; AC50 [8]: 9.46e-07 M; AC50 [8, 11]: 9.46e-07 M |
| CCOC(=O)C1=C(C)NC2=C(C(=O)CC(C)(C)C2)C1c1ccc(-c2ccccc2)cc1 (centres unmarked) [NCGC00347947-06] | 33.1 | 14.7 | -93.817 | -85.476 | 35.5 | No | 22.4 | > 30 | No | No | No | 5 | -39.533 | -99.952 | -2.2 | -55.111 | 2.06e-05 | 20.6 | 2.06e-05 | -2.1 | Antiviral activity in human NPC [3]: moderate antiviral activity; AC50 [3]: 3.55e-05 M; AC50 [3, 11]: 3.55e-05 M; CC50 at 48 h (in vitro [7]): > 50 µM; AC50 [8]: 8.43e-07 M; AC50 [8, 11]: 8.43e-07 M |
| COC(=O)[C@]12CCCC(C)(C)C1CCc1cc(C(C)C)c(O)c(O)c12 (some centres unmarked) [NCGC00380281-01] | – | 25.6 | -22.278 | -14.815 | 31.6 | No | > 30 | > 30 | No | No | No | -1.4 | -82.117 | -100.29 | – | – | – | – | – | 4 | IC50 ([1]; ZIKV-infected Vero cells, 48 hr, unit inferred): 12.9 µM; CC50 at 48 h (in vitro [7]): > 50 µM; AC50 ([9]; Vero, from Hill fit of the response curve, 50% of maximum activity response, 194 cherry-picked compounds, protocol name not given, read-out: AC50): 7.18e-06 M; AC50 ([9]; Vero, potency in log units (Molar) from Hill fit of the response curve, 194 cherry-picked compounds, protocol name not given, read-out: Log AC50 (converted)): 7.18e-06 M; IC50 ([9]; Vero cells, wild-type ZIKV MOI 1, 48 hr, unit inferred): 7.18 µM; Efficacy ([9]; difference between neutral response and maximum compound response): -21.701 |
| C=C(C)[C@@]12O[C@@H]1[C@@]1(C)C(=CC2=O)CC[C@@H](OC(C)=O)[C@@H]1C [NCGC00380955-01, 3-Acetyl-13-deoxyphomenone] | 1.66 | 2.33 | -81.826 | -89.257 | 12.6 | Yes | – | – | Yes | Yes | Yes | -1.2 | -59.673 | -100.008 | -1.2 | -61.612 | 4.61e-06 | 4.61 | 4.61e-06 | -1.2 | Antiviral activity in human NPC [3]: effectively inhibited ZIKV in NPC cells; AC50 [3]: 1.26e-05 M; AC50 [3, 11]: 1.26e-05 M; Activity against ZIKV (ZIKV): pan-activity against all four screened flaviviruses; SI value ZIKV (CC50/EC50) (ZIKV): 22; Selectivity Index ZIKV (CC50/EC50) (ZIKV): 22; Activity against WNV (WNV (Kern515/WN02)): pan-activity against all four screened flaviviruses; SI value WHV (CC50/EC50) (WNV (Kern515/WN02)): 9; Selectivity Index WHV (CC50/EC50) (WNV (Kern515/WN02)): 9; Activity against DENV [6]: pan-activity against all four screened flaviviruses; SI value DENV (CC50/EC50) [6]: 14; Selectivity Index DENV (CC50/EC50) [6]: 14; CC50 (in vitro [7]): > 50 µM; Activity against YFV (YFV (YFV 17D)): pan-activity against all four screened flaviviruses; SI value YFV (CC50/EC50) (YFV (YFV 17D)): 5; Selectivity Index YFV (CC50/EC50) (YFV (YFV 17D)): 5; AC50 [8]: 1.5e-06 M; AC50 [8, 11]: 1.5e-06 M; Retention of barrier function (TEER) [10]: 30% |
| Cc1[nH]c2ccccc2c1C1=C(NCCc2ccc(F)cc2)C(=O)N(C)C1=O [NCGC00386352-05] | 33.1 | 7.37 | -103.895 | -78.246 | 39.8 | Yes | > 30 | 17.8 | No | Yes | No | -1.4 | -71.769 | -66.876 | -1.2 | -35.912 | 2.06e-05 | 20.6 | 2.06e-05 | -2.2 | Antiviral activity in human NPC [3]: effectively inhibited ZIKV in NPC cells; AC50 [3]: 3.98e-05 M; AC50 [3, 11]: 3.98e-05 M; Activity against ZIKV (ZIKV): active against both DENV and ZIKV; SI value ZIKV (CC50/EC50) (ZIKV): 23; Selectivity Index ZIKV (CC50/EC50) (ZIKV): 23; Activity against DENV [6]: active against both DENV and ZIKV; SI value DENV (CC50/EC50) [6]: 24; Selectivity Index DENV (CC50/EC50) [6]: 24; CC50 at 48 h (in vitro [7]; Vero cells): > 50 µM |
| COc1ccc2c(c1)C=C1Cn3c-2c(C2CCCCC2)c2ccc(cc23)C(=O)N[S+](=O)([O-])N(C)CCOCCN(C)C1=O [NCGC00482982-02] | 1.66 | 20.8 | -30.77 | -24.808 | 5.01 | No | > 30 | > 30 | No | No | No | -1.4 | -60.775 | -100.29 | -2.2 | -39.12 | 2.59e-05 | 25.9 | 2.59e-05 | 4 | CC50 at 48 h (in vitro [7]; Vero cells): > 50 µM |
